Here are results for 47 compounds from patent US12528790B2, “Amide derivative having antiviral activity” (Shionogi & Co., Ltd., priority 2020, dated 2026).

In this experiment the test system is RSV A2 strain. The experiment is described as follows: In vitro CPE (CytoPathic Effect) inhibition effect evaluation test, RSV type A. The format is cell-based. The procedure, abridged: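 HEp-2 cells (2.4×10^5 cells/mL, 2% FBS E-MEM) were infected with RSV alongside 3-fold compound dilutions and incubated at 37 °C, 4 days for A2 and 5 days for B Wash/18537. Viable cells quantified by CellTiter-Glo 2.0 luminescence; EC50 by nonlinear regression as 50% CPE inhibition.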
For orientation: Cytopathic effects are the visible damage that an infection or toxin causes in cultured cells.

Setting [1] is: inhibitory effect against RSV type A (RSV A2 strain), HEp-2 cells, CPE inhibition, read-out: EC50.
Where [2] appears, read: human respiratory syncytial virus, inhibitory effect against RSV type A (RSV A2 strain), HEp-2 cells, CPE inhibition, read-out: EC50.

Read-outs that look alike come from different tables or passages of the source. A value given as a limit tells only on which side of the number the result lay.

Consider `COc1ccccc1-n1cc(-c2ccc(C(=O)NC3(C(=O)O)C4CC5CC(C4)CC3C5)c(C(F)(F)F)n2)c2ccc(OC3CCN(c4ncccn4)CC3)cc21` (centres unmarked) [Compound I-318], for which, under setting [1], the concentration for a half-maximal effect (EC50) was below 10 nM.
With `O=C(NC1(C(=O)O)C2CC3CC(C2)CC1C3)c1cnc(N2CC3(CCOCC3)c3cc(Nc4ccccn4)ccc32)nc1C(F)(F)F` (centres unmarked) [Compound I-280], under setting [2], the concentration giving a half-maximal response (EC50) was below 10 nM.
Still for that read-out and setting: next, `O=C(NC1(C(=O)O)C2CC3CC(C2)CC1C3)c1cnc(-c2cn(C3CCC(F)(F)CC3)c3cc(OC4CCC5(CC4)CN(c4ncccn4)C5)ccc23)nc1C(F)(F)F` (centres unmarked) [Compound I-369]: below 10 nM; `CC(N1CCC(Oc2ccc3c(-c4ncc(C(=O)NC5(C(=O)O)C6CC7CC(C6)CC5C7)c(C(F)(F)F)n4)cn(C4CCC(F)(F)CC4)c3c2)CC1)C(F)(F)F` (racemic) [Compound I-449]: below 10 nM.
On the same count and under the same terms, to `O=C(NC1(C(=O)O)CCCCC1)c1cnc(N2CC3(CCOCC3)c3nc(OCCC4CCOCC4)ccc32)nc1C(F)(F)F` [Compound I-106] belongs below 10 nM; to `CN(C)CCc1nc(N2CC3(CCOCC3)c3cc(OC4CCN(c5ncccn5)CC4)ccc32)nc(C(F)(F)F)c1C(=O)NC1(C(=O)O)C2CC3CC(C2)CC1C3` (centres unmarked) [Compound I-168], below 10 nM.
As to `CCNC(=O)N1CCC2(C1)CN(c1ncc(C(=O)NC3(C(=O)O)C4CC5CC(C4)CC3C5)c(C(F)(F)F)n1)c1ccc(OC3CCN(c4ncccn4)CC3)cc12` (racemic) [Compound I-364], the EC50 under setting [1] was below 10 nM.
Regarding `O=C(NC1(C(=O)O)C2CC3CC(C2)CC1C3)c1cnc(-c2cn(C3CCC(F)(F)CC3)c3cc(O[C@@H]4CCN(CC(F)(F)F)C4)ccc23)nc1C(F)(F)F` (some centres unmarked) [Compound I-374], the EC50 under setting [2] is below 10 nM.
For the compound `O=C(Nc1ccc2c(c1)C1(CCOCC1)CN2c1ncc(C(=O)NC2(C(=O)O)C3CC4CC(C3)CC2C4)c(C(F)(F)F)n1)c1ccccc1` (centres unmarked) [Compound I-323], under setting [1], the EC50 is below 10 nM.
In the case of `Cc1csc(COc2ccc3c(c2)CCN3c2ncc(C(=O)NC3(C(=O)O)CCCCC3)c(C(F)(F)F)n2)n1` [Compound I-37], under setting [2], the EC50 is below 10 nM.
As to `COc1ccc2c(-c3ncc(C(=O)NC4(C(=O)O)C5CC6CC(C5)CC4C6)c(C(F)(F)F)n3)cn(C3CCC(F)(F)CC3)c2c1` (centres unmarked) [Compound I-455], the EC50 under setting [2] lay in the range of 10 to 100 nM.
In the case of `O=C(NC1(C(=O)O)C2CC3CC(C2)CC1C3)c1ccc(-c2cn(-c3ncccc3C(F)(F)F)c3cc(OC4CCN(c5ncccn5)CC4)ccc23)nc1C(F)(F)F` (centres unmarked) [Compound I-316], the EC50 under setting [1] is below 10 nM.
In the case of `O=C(NC1(C(=O)O)C2CC3CC(C2)CC1C3)c1ccc(N2CCc3cc(OCCC4CCOCC4)ccc32)cc1C(F)(F)F` (centres unmarked) [Compound I-123], the EC50 under setting [2] is below 10 nM.
In the case of `O=C(NC1(C(=O)O)C2CC3CC(C2)CC1C3)c1cnc(-c2cn(C3CCC(F)(F)CC3)c3ccc(O[C@H]4CC[C@H](n5cccn5)CC4)cc23)nc1C(F)(F)F` (some centres unmarked) [Compound I-232], the EC50 under setting [2] was below 10 nM.
Take `O=C(NC1(C(=O)O)CCCCC1)c1cnc(N2CCc3cc(OC4CCN(c5nccc(=O)[nH]5)CC4)ccc32)nc1C(F)(F)F` [Compound I-69]: under setting [2], the EC50 was 100 to 5000 nM.
As to `COc1ccc2c(c1)CCN2c1ncc(C(=O)NC2(C(=O)O)C3CC4CC(C3)CC2C4)c(C(F)(F)F)n1` (centres unmarked) [Compound I-68], the EC50 under setting [1] fell in the range of 10 to 100 nM.
`O=C(NC1(C(=O)O)C2CC3CC(C2)CC1C3)c1cnc(N2CC3(CCOCC3)c3cc(Nc4ncccn4)ccc32)nc1C(F)(F)F` (centres unmarked) [Compound I-435]: the EC50 under setting [2] is below 10 nM.
As for `COc1ccnc(N2CCC(Oc3ccc4c(c3)CCN4c3ncc(C(=O)NC4(C(=O)O)CCCCC4)c(C(F)(F)F)n3)CC2)c1` [Compound I-79], the EC50 under setting [2] is 10 to 100 nM.
As to `O=C(NC1(C(=O)O)C2CC3CC(C2)CC1C3)c1ccc(-c2cn(CC3CC(F)(F)C3)c3cc(OC4CCN(c5ncccn5)CC4)ccc23)nc1C(F)(F)F` (centres unmarked) [Compound I-264], the EC50 under setting [2] was below 10 nM.
The same measure, in the same setting: next, `O=C(NC1(C(=O)O)C2CC3CC(C2)CC1C3)c1cnc(-c2cn(C3CCC(F)(F)CC3)c3cc(OC4CCN(c5ncccc5F)CC4)ccc23)nc1C(F)(F)F` (centres unmarked) [Compound I-241]: below 10 nM; `O=C(NC1(C(=O)O)C2CC3CC(C2)CC1C3)c1ccc(-c2cn([C@H]3CC[C@H](O)CC3)c3cc(OC4CCN(c5ncccn5)CC4)ccc23)nc1C(F)(F)F` (some centres unmarked) [Compound I-195]: below 10 nM.
As to `NC(=O)C1(NC(=O)c2ccc(N3CC4(CCOCC4)c4cc(OC5CCN(c6ncccn6)CC5)ccc43)nc2C(F)(F)F)C2CC3CC(C2)CC1C3` (centres unmarked) [Compound I-169], the EC50 under setting [2] is below 10 nM.
The same measure, in the same setting: next, `CC(NC(=O)c1cnc(-c2cn(C3CCC(F)(F)CC3)c3cc(OC4CCN(c5ncccn5)CC4)ccc23)nc1C(F)(F)F)(C(=O)O)C1CCCCC1` (racemic) [Compound I-267]: below 10 nM.
Regarding `O=C(NC1(C(=O)O)C2CC3CC(C2)CC1C3)c1cnc(-c2cn(C3CCC(F)(F)CC3)c3cc(CN4CCC(N5CC(F)(F)C5)CC4)ccc23)nc1C(F)(F)F` (centres unmarked) [Compound I-417], under setting [2], the 50% effective concentration (EC50) is below 10 nM.
For `O=C(NC1(C(=O)O)C2CC3CC(C2)CC1C3)c1cnc(N2CC3(CCOCC3)c3cc(-n4ncc5cccnc54)ccc32)nc1C(F)(F)F` (centres unmarked) [Compound I-471], the EC50 under setting [2] is below 10 nM.
On the same count and under the same terms, next, `CC(C)N1CCC(Oc2ccc3c(c2)C2(CCOCC2)CN3c2ncc(C(=O)NC3(C(=O)O)C4CC5CC(C4)CC3C5)c(C(F)(F)F)n2)CC1` (centres unmarked) [Compound I-209]: below 10 nM; `Cc1nc(N2CC3(CCOCC3)c3cc(OC4CCN(c5ncccn5)CC4)ccc32)nc(C(F)(F)F)c1C(=O)NC1(C(=O)O)C2CC3CC(C2)CC1C3` (centres unmarked) [Compound I-229]: below 10 nM; `O=C(NC1(C(=O)O)C2CC3CC(C2)CC1C3)c1cnc(N2CC3(CCOCC3)c3cc(OCC(O)C(F)(F)F)ccc32)nc1C(F)(F)F` (racemic) [Compound I-458]: below 10 nM.
Still for that read-out and setting: to `CC1(C)CCC(n2cc(-c3ccc(C(=O)NC4(C(=O)O)C5CC6CC(C5)CC4C6)c(C(F)(F)F)n3)c3ccc(OC4CCN(c5ncccn5)CC4)cc32)CC1` (centres unmarked) [Compound I-281] belongs below 10 nM; to `O=C(NC1(C(=O)O)C2CC3CC(C2)CC1C3)c1cnc(N2CC3(CCCCC3)c3cc(O[C@H]4CC[C@@H](ON=C5CC(F)(F)C5)CC4)ccc32)nc1C(F)(F)F` (some centres unmarked) [Compound I-461], 10 to 100 nM.
Same read-out and setting: to `Cc1cnn(CCOc2ccc3c(c2)CCN3c2ncc(C(=O)NC3(C(=O)O)CCCCC3)c(C(F)(F)F)n2)c1` [Compound I-75] belongs 10 to 100 nM.
Take `CC(F)(F)c1nc(N2CCc3cc(OCCC4CCOCC4)ccc32)ncc1C(=O)NC1(C(=O)O)C2CC3CC(C2)CC1C3` (centres unmarked) [Compound I-161]: the 50% effective concentration (EC50) under setting [2] was below 10 nM.
On the same count and under the same terms, next, `CS(=O)(=O)CCN1CCC(Oc2ccc3c(-c4ncc(C(=O)NC5(C(=O)O)C6CC7CC(C6)CC5C7)c(C(F)(F)F)n4)cn(C4CCC(F)(F)CC4)c3c2)CC1` (centres unmarked) [Compound I-254]: 10 to 100 nM; `O=C(NC1(C(=O)O)C2CC3CC(C2)CC1C3)c1ccc(-c2cn(C3CCC(F)(F)CC3)c3cc(OC4CCCN(C5COC5)C4)ccc23)nc1C(F)(F)F` (racemic) [Compound I-235]: below 10 nM.
The same measure, in the same setting: next, `COc1cncc(COc2ccc3c(c2)CCN3c2ncc(C(=O)NC3(C(=O)O)CCCCC3)c(C(F)(F)F)n2)c1` [Compound I-30]: 10 to 100 nM.
On the same count and under the same terms, next, `O=C(NC1(C(=O)O)CCCC1)c1cnc(N2CCc3cc(OC4CCN(c5ncccn5)CC4)ccc32)nc1C(F)(F)F` [Compound I-48]: below 10 nM.
Regarding `Cn1c(C2CCOCC2)c(-c2ccc(C(=O)NC3(C(=O)O)C4CC5CC(C4)CC3C5)c(C(F)(F)F)n2)c2ccc(OC3CCN(c4ncccn4)CC3)cc21` (centres unmarked) [Compound I-270], the EC50 (human respiratory syncytial virus, HEp-2, 96 h, read-out: EC50, inhibitory effect against RSV type A (CPE inhibition)) came out at 37 nM.
Consider `Cn1ncc2c1CCC(Oc1ccc3c(c1)C1(CCOCC1)CN3c1ncc(C(=O)NC3(C(=O)O)C4CC5CC(C4)CC3C5)c(C(F)(F)F)n1)C2` (single isomer, unassigned) [Compound I-191], for which, under setting [1], the 50% effective concentration (EC50) was below 10 nM.
In the case of `O=C(NC1(C(=O)O)C2CC3CC(C2)CC1C3)c1cnc(N2CC3(CCCCC3)c3cc(O[C@H]4CC[C@H](ON=C5CC(F)(F)C5)CC4)ccc32)nc1C(F)(F)F` (some centres unmarked) [Compound I-460], the 50% effective concentration (EC50) under setting [2] was below 10 nM.
Still for that read-out and setting: next, `CC(C)(C)C[C@@H](NC(=O)c1cnc(-c2cn(C3CCC(F)(F)CC3)c3cc(OC4CCN(c5ncccn5)CC4)ccc23)nc1C(F)(F)F)C(=O)O` [Compound I-302]: below 10 nM.
Consider `O=C(NC1(C(=O)O)C2CC3CC(C2)CC1C3)c1cnc(N2CC3(CCOCC3)c3nc(OC4CCN(c5ncccn5)CC4)ccc32)nc1C(F)(F)F` (centres unmarked) [Compound I-107], for which, under setting [1], the EC50 is below 10 nM.
`O=C(NC1(c2noc(=O)[nH]2)CCCCC1)c1cnc(N2CC3(CCOCC3)c3cc(OC4CCN(c5ncccn5)CC4)ccc32)nc1C(F)(F)F` [Compound I-99]: the EC50 (human respiratory syncytial virus, HEp-2) is below 10 nM.
As to `COc1ccc(N2CCC(Oc3ccc4c(c3)CCN4c3ncc(C(=O)NC4(C(=O)O)CCCCC4)c(C(F)(F)F)n3)CC2)nc1` [Compound I-78], under setting [2], the EC50 was below 10 nM.
Take `O=C(NC1(C(=O)O)C2CC3CC(C2)CC1C3)c1cnc(-c2cn(C3CCC(F)(F)CC3)c3cc(O[C@H]4CCN(C5COC5)C4)ccc23)nc1C(F)(F)F` (some centres unmarked) [Compound I-248]: the EC50 under setting [2] is below 10 nM.
As for `O=C(NC1(C(=O)O)C2CC3CC(C2)CC1C3)c1cnc(-c2cn(C3CCC(F)(F)CC3)c3cc(OC4CCC(N5CCC(F)(F)C5)CC4)ccc23)nc1C(F)(F)F` (single isomer, unassigned) [Compound I-427], under setting [2], the EC50 is below 10 nM.
Same read-out and setting: to `O=C(NC1(C(=O)O)C2CC3CC(C2)CC1C3)c1cnc(N2c3cc(F)c(OC4CCN(c5ncccn5)CC4)cc3C3CCCCCC32)nc1C(F)(F)F` (single isomer, unassigned) [Compound I-395] belongs below 10 nM; to `O=C(NC1(C(=O)O)C2CC3CC(C2)CC1C3)c1cnc(-c2cn(C3CCC(F)(F)CC3)c3cc(OC4CCN(S(=O)(=O)C5CC5)CC4)ccc23)nc1C(F)(F)F` (centres unmarked) [Compound I-259], below 10 nM.

In general, EC50 refers to the concentration needed to bring the measured effect to its halfway point.
